The supplement of paper PMC11061612

Legend:
Assay in all cases: Bliss excess, mean over the matrix (fraction); higher = more synergy
[1] = system: 23132-87 (Gastric Carcinoma)
Procedure, shortened: (§1)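 Bliss excess equals the observed combination effect minus the expected value EA + EB − EA·EB, where EA and EB are the effects of each agent alone. Combination Emax is the second-highest inhibition within the matrix. Inhibition was scaled from CellTiter-Glo 2.0 luminescence, with 0 set by vehicle wells and 1 by blank wells, after 72 hours of two-drug dosing of cells plated in 1536-well plates.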

[2] = system: CAL-120 (Breast Carcinoma)
Procedure, shortened: as §1

[3] = system: COLO-680N (Esophageal Squamous Cell Carcinoma)
Procedure, shortened: as §1

[4] = system: GB-1 (Glioblastoma)
Procedure, shortened: as §1

[5] = system: GP5d (Colorectal Carcinoma)
Procedure, shortened: as §1

[6] = system: HEC-1 (Endometrial Carcinoma)
Procedure, shortened: as §1

[7] = system: HSC-39 (Gastric Carcinoma)
Procedure, shortened: as §1

[8] = system: IST-MES1 (Mesothelioma)
Procedure, shortened: as §1

[9] = system: LB996-RCC (Kidney Carcinoma)
Procedure, shortened: as §1

[10] = system: LN-229 (Glioblastoma)
Procedure, shortened: as §1

[11] = system: MFE-280 (Endometrial Carcinoma)
Procedure, shortened: as §1

[12] = system: MKN45 (Gastric Carcinoma)
Procedure, shortened: as §1

[13] = system: NCI-H23 (Lung Adenocarcinoma)
Procedure, shortened: as §1

[14] = system: NCI-H2342 (Lung Adenocarcinoma)
Procedure, shortened: as §1

[15] = system: OAW-42 (Ovarian Carcinoma)
Procedure, shortened: as §1

[16] = system: RCM-1 (Colorectal Carcinoma)
Procedure, shortened: as §1

[17] = system: RERF-GC-1B (Gastric Carcinoma)
Procedure, shortened: as §1

[18] = system: RERF-LC-Sq1 (Squamous Cell Lung Carcinoma)
Procedure, shortened: as §1

[19] = system: SU-DHL-10 (B-Cell Non-Hodgkin's Lymphoma)
Procedure, shortened: as §1

[20] = system: VAL (B-Cell Non-Hodgkin's Lymphoma)
Procedure, shortened: as §1

SMILES | Bliss excess [1] | Bliss excess [2] | Bliss excess [3] | Bliss excess [4] | Bliss excess [5] | Bliss excess [6] | Bliss excess [7] | Bliss excess [8] | Bliss excess [9] | Bliss excess [10] | Bliss excess [11] | Bliss excess [12] | Bliss excess [13] | Bliss excess [14] | Bliss excess [15] | Bliss excess [16] | Bliss excess [17] | Bliss excess [18] | Bliss excess [19] | Bliss excess [20]
NC1(C(=O)N[C@@H](CCO)c2ccc(Cl)cc2)CCN(c2ncnc3[nH]ccc23)CC1 [Capivasertib] + Cn1cnc2c(F)c(Nc3ccc(Br)cc3Cl)c(C(=O)NOCCO)cc21 [Selumetinib] (first compound max 10 µM, 7x7, partner max 10 µM) | 0.0687 | 0.0219 | 0.028 | 0.0042 | -0.0427 | 0.0234 | 0.2 | 0.0018 | 0.0146 | 0.0437 | 0.0212 | -0.0478 | 0.0101 | 0.0891 | 0.0028 | 0.019 | 0.0077 | 0.0005 | 0.0269 | -0.0242
Cc1nc(Nc2ncc(C(=O)Nc3c(C)cccc3Cl)s2)cc(N2CCN(CCO)CC2)n1 [Dasatinib] + CC(=O)Nc1cccc(-n2c(=O)n(C3CC3)c(=O)c3c(Nc4ccc(I)cc4F)n(C)c(=O)c(C)c32)c1 [Trametinib] (first compound max 2 µM, 7x7, partner max 1 µM) | -0.045 | 0.032 | 0.0389 | 0.121 | -0.0254 | 0.0095 | -0.0706 | 0.0328 | -0.0527 | -0.0025 | -0.0004 | -0.0069 | 0.0225 | -0.0578 | 0.0199 | 0.018 | 0.0784 | -0.179 | 0.0745 | -0.0543
COc1cc2ncnc(Nc3ccc(F)c(Cl)c3)c2cc1OCCCN1CCOCC1 [Gefitinib] + CC(C)n1c(=O)n(C)c2cnc3cc(F)c(-c4ccc(OCCCN5CCCCC5)nc4)cc3c21 [AZD1390] (first compound max 10 µM, 7x7, partner max 0.3 µM) | -0.025 | -0.0446 | -0.0252 | -0.0815 | -0.0359 | -0.0442 | 0.0185 | -0.0524 | -0.0069 | -0.077 | -0.0676 | -0.046 | -0.0466 | -0.052 | -0.0384 | -0.0395 | -0.092 | -0.0938 | -0.0254 | -0.0608
CS(=O)(=O)CCNCc1ccc(-c2ccc3ncnc(Nc4ccc(OCc5cccc(F)c5)c(Cl)c4)c3c2)o1 [Lapatinib] + C[C@@H](Oc1cc(-c2cnn(C3CCNCC3)c2)cnc1N)c1c(Cl)ccc(F)c1Cl [Crizotinib] (first compound max 10 µM, 7x7, partner max 10 µM) | 0.0195 | 0.0084 | -0.017 | -0.11 | -0.0036 | -0.021 | -0.0117 | -0.0937 | -0.0196 | -0.0396 | -0.0226 | -0.0063 | -0.0265 | -0.0006 | -0.0033 | -0.0107 | -0.0237 | -0.039 | -0.0087 | -0.0531
CC(=O)c1c(C)c2cnc(Nc3ccc(N4CCNCC4)cn3)nc2n(C2CCCC2)c1=O [Palbociclib] + CC1(C)CCC(CN2CCN(c3ccc(C(=O)NS(=O)(=O)c4ccc(NCC5CCOCC5)c([N+](=O)[O-])c4)c(Oc4cnc5[nH]ccc5c4)c3)CC2)=C(c2ccc(Cl)cc2)C1 [Venetoclax] (first compound max 10 µM, 7x7, partner max 1 µM) | -0.0416 | -0.0523 | -0.0445 | -0.0448 | -0.011 | -0.0489 | -0.0476 | -0.0203 | 0.0044 | -0.0652 | -0.068 | -0.0481 | -0.0199 | -0.0564 | -0.0365 | -0.0717 | -0.048 | 0.0475 | -0.0873 | -0.0109
CC(=O)c1c(C)c2cnc(Nc3ccc(N4CCNCC4)cn3)nc2n(C2CCCC2)c1=O [Palbociclib] + Cc1c2c(nn1C)CSCc1cc(n(C)n1)CSc1cc(c3ccccc3c1)OCCCc1c(C(=O)O)n(C)c3c-2c(Cl)ccc13 [AZD5991] (first compound max 10 µM, 7x7, partner max 1 µM) | -0.198 | -0.0209 | -0.0341 | -0.102 | -0.069 | -0.0336 | -0.0383 | -0.0111 | -0.0238 | -0.057 | -0.0333 | -0.0556 | -0.0562 | -0.0063 | 0.0143 | -0.0561 | -0.0116 | -0.0228 | -0.0199 | 0.0533
CC(=O)c1c(C)c2cnc(Nc3ccc(N4CCNCC4)cn3)nc2n(C2CCCC2)c1=O [Palbociclib] + Cn1cnc2c(F)c(Nc3ccc(Br)cc3Cl)c(C(=O)NOCCO)cc21 [Selumetinib] (first compound max 10 µM, 7x7, partner max 10 µM) | -0.0683 | -0.0361 | -0.0207 | -0.0016 | -0.0062 | -0.0391 | -0.0069 | -0.0799 | -0.0426 | 0.001 | -0.0255 | -0.0092 | -0.0057 | -0.0441 | -0.0555 | -0.0286 | -0.0329 | -0.0488 | 0.0392 | 0.0029
COc1cccc(OCCCN)c1-c1cc(Nc2cnc(C#N)cn2)n[nH]1 [Prexasertib] + CCc1c2c(nc3ccc(O)cc13)-c1cc3c(c(=O)n1C2)COC(=O)[C@]3(O)CC [SN-38] (first compound max 1 µM, 7x7, partner max 0.3 µM) | -0.0307 | 0.0574 | 0.0609 | -0.0438 | -0.0173 | 0.0893 | 0.0026 | -0.026 | -0.0334 | -0.022 | 0.115 | -0.0493 | -0.0001 | -0.0703 | -0.0263 | -0.0729 | 0.0318 | -0.0081 | 0.035 | -0.0702
C[C@@H](c1ccc2nccn2c1)n1nnc2ncc(-c3cnn(C)c3)nc21 [Savolitinib] + CC1(C)CCC(CN2CCN(c3ccc(C(=O)NS(=O)(=O)c4ccc(NCC5CCOCC5)c([N+](=O)[O-])c4)c(Oc4cnc5[nH]ccc5c4)c3)CC2)=C(c2ccc(Cl)cc2)C1 [Venetoclax] (first compound max 1 µM, 7x7, partner max 1 µM) | -0.0578 | -0.0804 | -0.0115 | -0.0626 | -0.0572 | -0.0423 | 0.0096 | -0.0318 | -0.0725 | -0.0679 | -0.044 | -0.0664 | -0.0486 | -0.0631 | -0.024 | -0.0416 | -0.0303 | -0.0562 | -0.0048 | -0.0305
C[C@@H](c1ccc2nccn2c1)n1nnc2ncc(-c3cnn(C)c3)nc21 [Savolitinib] + Cc1c2c(nn1C)CSCc1cc(n(C)n1)CSc1cc(c3ccccc3c1)OCCCc1c(C(=O)O)n(C)c3c-2c(Cl)ccc13 [AZD5991] (first compound max 1 µM, 7x7, partner max 1 µM) | 0.0014 | -0.0387 | -0.0291 | -0.0495 | -0.0912 | -0.0541 | -0.0133 | -0.0435 | -0.0372 | -0.0372 | -0.052 | -0.0133 | -0.0163 | 0.0288 | -0.0474 | -0.0451 | -0.0141 | -0.009 | -0.0034 | -0.0491
Cn1cnc2c(F)c(Nc3ccc(Br)cc3Cl)c(C(=O)NOCCO)cc21 [Selumetinib] + C=CCn1c(=O)c2cnc(Nc3ccc(N4CCN(C)CC4)cc3)nc2n1-c1cccc(C(C)(C)O)n1 [AZD1775] (first compound max 10 µM, partner max 1 µM) | -0.0804 | -0.0502 | 0.0147 | -0.0522 | -0.0796 | -0.0448 | -0.0725 | -0.0955 | -0.0886 | -0.0115 | -0.0485 | -0.0765 | 0.0223 | -0.0366 | -0.0694 | -0.0359 | 0.025 | -0.0617 | 0.0359 | -0.052
Cn1cnc2c(F)c(Nc3ccc(Br)cc3Cl)c(C(=O)NOCCO)cc21 [Selumetinib] + CC(C)n1c(=O)n(C)c2cnc3cc(F)c(-c4ccc(OCCCN5CCCCC5)nc4)cc3c21 [AZD1390] (first compound max 10 µM, 7x7, partner max 0.3 µM) | -0.0449 | -0.0388 | -0.0022 | -0.0574 | 0.0142 | -0.0412 | 0.0253 | -0.0382 | -0.0262 | -0.0563 | -0.0427 | -0.0388 | -0.0103 | -0.0489 | -0.0392 | -0.0495 | 0.0413 | 0.0117 | -0.0183 | -0.0424
Cn1cnc2c(F)c(Nc3ccc(Br)cc3Cl)c(C(=O)NOCCO)cc21 [Selumetinib] + CCN(CCO)CCCOc1ccc2c(Nc3cc(CC(=O)Nc4cccc(F)c4)[nH]n3)ncnc2c1 [AZD2811] (first compound max 10 µM, 7x7, partner max 1 µM) | -0.0264 | -0.0065 | -0.0324 | -0.0512 | -0.0153 | -0.0402 | -0.0355 | -0.0718 | -0.0359 | -0.0303 | -0.0767 | 0.0107 | 0.0194 | -0.0569 | -0.011 | -0.0259 | 0.0288 | -0.0041 | -0.0915 | -0.0614
